According to ChEMBL document CHEMBL1136790, “Identification of 1-arylmethyl-3- (2-aminoethyl)-5-aryluracil as novel gonadotropin-releasing hormone receptor antagonists” (J Med Chem, 2003):

How the values were obtained:
[1] = target: T1, Gonadotropin-releasing hormone receptor (Homo sapiens, UniProt P30968); test: Binding affinity was determined towards human gonadotropin-releasing hormone receptor
T1 sequence (P30968 whole entry): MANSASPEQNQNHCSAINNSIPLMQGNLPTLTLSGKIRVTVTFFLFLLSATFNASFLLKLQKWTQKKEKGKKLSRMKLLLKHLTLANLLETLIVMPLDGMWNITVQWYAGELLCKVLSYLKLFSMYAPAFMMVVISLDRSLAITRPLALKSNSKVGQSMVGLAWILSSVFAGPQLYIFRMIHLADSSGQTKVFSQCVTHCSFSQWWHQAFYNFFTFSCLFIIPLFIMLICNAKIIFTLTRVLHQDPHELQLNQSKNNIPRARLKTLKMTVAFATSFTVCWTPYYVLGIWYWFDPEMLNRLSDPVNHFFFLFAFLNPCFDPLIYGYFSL

[2] = target: T1, Gonadotropin-releasing hormone receptor; test: Binding affinity was determined towards human Gonadotropin-releasing hormone receptor

Row | SMILES | Ki [1] | Ki [2]
1 | Cc1c(-c2ccccc2)c(=O)n(CCN(C)CCc2ccccn2)c(=O)n1Cc1c(F)cccc1F | 400 nM | –
2 | COc1cccc(-c2cn(Cc3c(F)cccc3F)c(=O)n(CCN(C)CCc3ccccn3)c2=O)c1 | 1700 nM | –
3 | COc1cccc(-c2c(C)n(Cc3c(F)cccc3F)c(=O)n(CCN3CCCC3c3ccccn3)c2=O)c1 (stereo unspecified) | 530 nM | –
4 | CCc1c(-c2cccc(OC)c2)c(=O)n(CCN(C)CCc2ccccn2)c(=O)n1Cc1c(F)cccc1F | 2200 nM | –
5 | Cc1c(-c2cccc(O)c2)c(=O)n(CCN(C)CCc2ccccn2)c(=O)n1Cc1c(F)cccc1F | 480 nM | –
6 | COc1cccc(-c2c(C)n(Cc3c(F)cccc3F)c(=O)n(CCNCCc3c[nH]cn3)c2=O)c1 | 3800 nM | –
7 | COc1cccc(-c2c(C)n(Cc3c(F)cccc3F)c(=O)n(CCN3CCC[C@@H]3Cc3ccccn3)c2=O)c1 | 4800 nM | –
8 | COc1cccc(-c2c(C)n(Cc3c(F)cccc3F)c(=O)n(CCNCCc3ccccc3)c2=O)c1 | 1100 nM | –
9 | Cc1c(-c2cccc(OC(F)(F)F)c2)c(=O)n(CCN(C)CCc2ccccn2)c(=O)n1Cc1c(F)cccc1F | 4800 nM | –
10 | COc1cccc(-c2c(C)n(Cc3c(F)cccc3F)c(=O)n(CCNCc3ccccc3)c2=O)c1 | – | 240 nM

Continued by falling Ki [1], values first:

Row | Ki [1] | Ki [2] | SMILES
11 | 230 nM | – | COc1ccc(-c2c(C)n(Cc3c(F)cccc3F)c(=O)n(CCN(C)CCc3ccccn3)c2=O)cc1
12 | 220 nM | – | CCc1cccc(-c2c(C)n(Cc3c(F)cccc3F)c(=O)n(CCN(C)CCc3ccccn3)c2=O)c1
13 | 130 nM | – | COc1cccc(-c2c(C)n(Cc3c(F)cccc3F)c(=O)n(CCN3CCC[C@H]3Cc3ccccn3)c2=O)c1
14 | 38 nM | – | Cc1c(-c2ccc3c(c2)OCO3)c(=O)n(CCN(C)CCc2ccccn2)c(=O)n1Cc1c(F)cccc1F
15 | 30 nM | – | Cc1c(-c2ccc(Oc3ccccc3)cc2)c(=O)n(CCN(C)CCc2ccccn2)c(=O)n1Cc1c(F)cccc1F
16 | 24 nM | – | Cc1c(-c2ccc3c(c2)OCCO3)c(=O)n(CCN(C)CCc2ccccn2)c(=O)n1Cc1c(F)cccc1F
